{"source": "ChEMBL document CHEMBL1201862", "about": "“PubChem BioAssay data set” (2004)", "key": {"[1]": {"molecular_target": "Paired box protein Pax-8 (Homo sapiens, UniProt Q06710)", "sequence (Q06710 whole entry)": "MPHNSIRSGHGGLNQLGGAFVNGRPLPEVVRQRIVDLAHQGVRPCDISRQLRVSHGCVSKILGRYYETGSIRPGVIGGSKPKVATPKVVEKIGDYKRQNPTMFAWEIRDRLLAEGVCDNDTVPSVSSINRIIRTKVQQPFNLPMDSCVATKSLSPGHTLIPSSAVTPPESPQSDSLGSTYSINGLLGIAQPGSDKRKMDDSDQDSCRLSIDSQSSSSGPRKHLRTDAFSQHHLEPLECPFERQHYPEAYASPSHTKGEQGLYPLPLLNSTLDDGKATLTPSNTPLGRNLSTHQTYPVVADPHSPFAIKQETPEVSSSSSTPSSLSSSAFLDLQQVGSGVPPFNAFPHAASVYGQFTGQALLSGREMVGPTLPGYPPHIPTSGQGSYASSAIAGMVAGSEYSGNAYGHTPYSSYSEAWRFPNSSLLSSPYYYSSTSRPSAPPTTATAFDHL", "assay": "inhibitors of PAX8-driven TPO luciferase reporter, dose response, RMG-I cells, cherry-pick (AID 687027);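 also: luciferase reporter driven by Pax8 target thyroperoxidase promoter measured by SteadyGlo luminescence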", "format": "functional, cell-based"}, "[2]": {"molecular_target": "T1, Probable nicotinate-nucleotide adenylyltransferase (Staphylococcus aureus (strain N315), UniProt P65502)", "T1 sequence (P65502 whole entry)": "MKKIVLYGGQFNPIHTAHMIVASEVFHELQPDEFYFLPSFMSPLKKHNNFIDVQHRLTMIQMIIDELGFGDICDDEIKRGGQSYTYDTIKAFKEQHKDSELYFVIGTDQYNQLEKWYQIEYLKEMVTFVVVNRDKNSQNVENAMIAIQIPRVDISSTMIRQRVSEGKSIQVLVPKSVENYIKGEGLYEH", "format": "functional, Staphylococcus aureus subsp. aureus N315", "settings": "read-out: IC50_Mean"}, "[3]": {"molecular_target": "T1, Probable nicotinate-nucleotide adenylyltransferase", "format": "functional, Staphylococcus aureus subsp. aureus N315"}, "[4]": {"molecular_target": "Albumin (Bos taurus, UniProt P02769)", "sequence (P02769 whole entry)": "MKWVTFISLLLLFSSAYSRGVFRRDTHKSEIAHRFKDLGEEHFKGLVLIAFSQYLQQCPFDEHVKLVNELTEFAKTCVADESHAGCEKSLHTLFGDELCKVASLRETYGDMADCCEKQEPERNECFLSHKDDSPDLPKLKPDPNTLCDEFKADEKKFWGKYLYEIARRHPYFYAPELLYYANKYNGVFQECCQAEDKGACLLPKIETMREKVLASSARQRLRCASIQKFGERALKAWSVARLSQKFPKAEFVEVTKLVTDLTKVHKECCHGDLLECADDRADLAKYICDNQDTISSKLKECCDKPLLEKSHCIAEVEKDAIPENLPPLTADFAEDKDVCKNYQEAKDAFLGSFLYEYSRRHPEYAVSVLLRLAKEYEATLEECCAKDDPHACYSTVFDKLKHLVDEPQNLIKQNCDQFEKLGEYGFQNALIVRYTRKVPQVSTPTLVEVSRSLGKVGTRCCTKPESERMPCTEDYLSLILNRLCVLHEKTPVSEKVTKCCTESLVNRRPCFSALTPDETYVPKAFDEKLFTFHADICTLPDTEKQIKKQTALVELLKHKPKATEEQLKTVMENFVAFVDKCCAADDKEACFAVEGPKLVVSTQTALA", "assay": "Counterscreen for inhibitors of T-cell receptor (TCR)-CD3 interaction: Fluorescence-based biochemical high throughput dose response assay to identify inhibitors of T-cell receptor (TCR)-CD3 interaction using a TAMRA-labeled BSA probe.", "format": "functional"}, "[5]": {"molecular_target": "T2, Endoribonuclease toxin MazF (Escherichia coli K-12, UniProt P0AE70)", "T2 sequence (P0AE70 whole entry)": "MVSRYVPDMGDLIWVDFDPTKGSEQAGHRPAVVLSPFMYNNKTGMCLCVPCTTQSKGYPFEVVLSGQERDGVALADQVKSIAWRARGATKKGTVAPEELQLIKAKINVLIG", "assay": "fluorescent RNA oligo signal without MazF, dose response, counter-screen for MazEF activator project, biochemical, fluorescence, single-stranded RNase substrate (AID 588502)", "format": "functional"}, "[6]": {"molecular_target": "T2, Endoribonuclease toxin MazF", "assay": "MazF toxin RNase activators, dose response, biochemical, fluorescence, single-stranded RNA substrate, uHTS hits (AID 588481)", "format": "functional"}, "[7]": {"molecular_target": "T3, Sentrin-specific protease 1 (Homo sapiens, UniProt Q9P0U3)", "T3 sequence (Q9P0U3 whole entry, the tested form may be a part)": "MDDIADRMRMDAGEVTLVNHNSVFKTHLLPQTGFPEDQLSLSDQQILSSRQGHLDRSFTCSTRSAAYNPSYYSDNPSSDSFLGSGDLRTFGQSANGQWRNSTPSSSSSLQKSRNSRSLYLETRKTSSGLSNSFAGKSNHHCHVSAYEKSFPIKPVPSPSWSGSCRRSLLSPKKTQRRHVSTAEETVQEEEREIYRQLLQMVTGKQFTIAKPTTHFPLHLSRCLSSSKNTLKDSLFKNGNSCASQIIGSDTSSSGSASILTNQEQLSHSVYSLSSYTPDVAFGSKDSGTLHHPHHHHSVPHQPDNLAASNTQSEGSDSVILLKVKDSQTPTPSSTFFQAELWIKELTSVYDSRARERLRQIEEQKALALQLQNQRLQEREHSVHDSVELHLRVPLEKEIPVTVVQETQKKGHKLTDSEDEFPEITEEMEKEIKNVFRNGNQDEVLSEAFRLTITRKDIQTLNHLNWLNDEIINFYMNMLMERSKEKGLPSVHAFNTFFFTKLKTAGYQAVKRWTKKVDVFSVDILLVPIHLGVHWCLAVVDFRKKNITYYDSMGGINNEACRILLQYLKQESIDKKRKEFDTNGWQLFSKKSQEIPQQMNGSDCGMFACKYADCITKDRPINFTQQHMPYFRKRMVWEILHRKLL", "assay": "Dose response confirmation of small molecule inhibitors of the catalytic domain of the SUMO protease, SENP1 in a FRET assay.", "format": "functional", "settings": "read-out: IC50_Mean"}, "[8]": {"molecular_target": "T4, Rac GTPase-activating protein 1 (Homo sapiens, UniProt Q9H0H5)", "T4 sequence (Q9H0H5 whole entry)": "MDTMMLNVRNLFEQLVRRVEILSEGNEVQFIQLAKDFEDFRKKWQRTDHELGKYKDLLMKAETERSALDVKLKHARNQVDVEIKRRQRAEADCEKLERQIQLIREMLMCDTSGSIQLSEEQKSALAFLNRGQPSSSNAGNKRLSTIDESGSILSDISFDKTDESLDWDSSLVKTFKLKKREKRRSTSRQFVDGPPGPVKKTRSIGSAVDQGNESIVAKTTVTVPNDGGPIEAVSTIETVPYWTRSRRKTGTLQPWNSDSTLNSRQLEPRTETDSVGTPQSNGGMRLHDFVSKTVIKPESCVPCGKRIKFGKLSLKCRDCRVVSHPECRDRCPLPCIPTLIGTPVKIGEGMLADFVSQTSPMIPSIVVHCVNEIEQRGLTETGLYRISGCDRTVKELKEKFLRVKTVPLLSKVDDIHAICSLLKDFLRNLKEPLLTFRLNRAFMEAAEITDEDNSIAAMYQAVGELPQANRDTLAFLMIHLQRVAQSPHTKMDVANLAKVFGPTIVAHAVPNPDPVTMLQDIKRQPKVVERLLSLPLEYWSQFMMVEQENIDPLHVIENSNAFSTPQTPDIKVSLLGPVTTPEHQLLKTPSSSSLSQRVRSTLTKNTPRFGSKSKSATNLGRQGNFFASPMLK", "assay": "MgcRacGAP GTPase-activating activity inhibitors, confirmation, biochemical, ADP Hunter fluorescence, primary and confirmatory (AID 624330)", "format": "functional"}, "[9]": {"molecular_target": "T3, Sentrin-specific protease 1", "assay": "potency of human SENP1 inhibitors, dose response, biochemical, kinetic FRET (AID 651697)", "format": "functional", "settings": "read-out: IC50_Mean"}, "[10]": {"tested_on": "Vero", "assay": "Vero cell toxicity, dose response, cytotoxicity control, plate reader, cherry-pick samples (AID 687020)", "format": "functional, cell-based", "settings": "Chlorocebus sabaeus"}, "[11]": {"tested_on": "A549", "assay": "A549 cell toxicity, dose response, cytotoxicity control, plate reader, cherry-pick samples (AID 687028)", "format": "functional, cell-based", "settings": "Homo sapiens"}, "[12]": {"molecular_target": "Fructose-bisphosphate aldolase (Mycobacterium tuberculosis, UniProt P9WQA3)", "sequence (P9WQA3 whole entry)": "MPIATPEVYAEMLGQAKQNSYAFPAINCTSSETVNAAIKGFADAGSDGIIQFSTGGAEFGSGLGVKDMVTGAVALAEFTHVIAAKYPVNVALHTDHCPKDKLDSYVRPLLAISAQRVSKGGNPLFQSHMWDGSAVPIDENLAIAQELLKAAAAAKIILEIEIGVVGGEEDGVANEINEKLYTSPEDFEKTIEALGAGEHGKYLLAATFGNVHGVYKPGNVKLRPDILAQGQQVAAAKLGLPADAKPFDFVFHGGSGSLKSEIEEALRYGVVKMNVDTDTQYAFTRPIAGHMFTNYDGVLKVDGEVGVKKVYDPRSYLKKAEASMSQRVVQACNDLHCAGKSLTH", "assay": "Fluorescence-based biochemical high throughput dose response assay for inhibitors of the fructose-bisphosphate aldolase (FBA) of M. tuberculosis.", "format": "functional"}, "[13]": {"assay": "cytotoxicity toward DRD oncogenic fibroblasts, dose response, cell-based, non-viral oncogenic, luminescence (AID 1934)", "format": "functional", "settings": "Homo sapiens"}, "[14]": {"assay": "cytotoxicity toward NIH3T3 fibroblasts, dose response, counter-screen, cell-based, ATP luminescence, mouse fibroblasts (AID 2010);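 also: cells exposed to compound for about 90 hours before reading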", "format": "functional"}, "[15]": {"assay": "non-specific cell cytotoxicity, dose response, cytotoxicity control for PAX8 inhibitor project, plate reader, dry powder samples (AID 743021)", "format": "functional, cell-based"}, "[16]": {"tested_on": "INS1", "assay": "beta cell apoptosis inhibitors, cytokine rescue, dose response, luminescence, retest (AID 449756);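 also: cell death triggered by IL-1 beta plus TNF-alpha plus IFN-gamma mixture; protective hits raise ATP signal compared with cytokine alone wells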", "format": "functional, cell-based", "settings": "Rattus norvegicus"}, "[17]": {"molecular_target": "T5, DNA repair protein RAD52 homolog (Homo sapiens, UniProt P43351)", "T5 sequence (P43351 whole entry)": "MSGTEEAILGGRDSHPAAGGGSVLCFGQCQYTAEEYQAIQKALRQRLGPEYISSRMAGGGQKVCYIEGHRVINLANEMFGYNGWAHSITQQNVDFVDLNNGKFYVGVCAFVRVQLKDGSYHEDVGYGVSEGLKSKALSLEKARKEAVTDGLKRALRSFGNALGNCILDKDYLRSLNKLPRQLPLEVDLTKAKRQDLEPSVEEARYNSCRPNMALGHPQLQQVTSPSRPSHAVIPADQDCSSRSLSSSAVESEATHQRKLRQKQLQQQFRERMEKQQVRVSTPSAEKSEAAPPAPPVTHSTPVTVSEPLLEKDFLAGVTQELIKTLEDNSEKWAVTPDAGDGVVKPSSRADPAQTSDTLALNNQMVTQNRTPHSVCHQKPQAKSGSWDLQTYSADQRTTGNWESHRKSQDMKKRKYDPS", "format": "functional, biochemical"}, "[18]": {"tested_on": "BJ", "assay": "cytotoxicity toward BJ-TERT fibroblasts, dose response, cell-based, RAS-independent, luminescence (AID 1933)", "format": "functional", "settings": "Homo sapiens"}, "[19]": {"assay": "HeLa cell cytotoxicity, dose response, cytotoxicity control for MgcRacGAP inhibitor project (AID 624300)", "format": "functional"}, "[20]": {"assay": "inhibitors of intracellular T. cruzi replication, confirmation, NIH3T3 host cells, beta-gal luminescence (AID 2044);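 also: luminescent beta-galactosidase reporter signal from transgenic T. cruzi replicating inside host cells; inhibitors lower the luminescence signal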", "format": "functional, cell-based"}, "[21]": {"tested_on": "BJ", "assay": "cells", "format": "functional, cell-based", "settings": "Homo sapiens"}, "[22]": {"molecular_target": "Neurotensin receptor type 1 (Homo sapiens, UniProt P30989)", "sequence (P30989 whole entry)": "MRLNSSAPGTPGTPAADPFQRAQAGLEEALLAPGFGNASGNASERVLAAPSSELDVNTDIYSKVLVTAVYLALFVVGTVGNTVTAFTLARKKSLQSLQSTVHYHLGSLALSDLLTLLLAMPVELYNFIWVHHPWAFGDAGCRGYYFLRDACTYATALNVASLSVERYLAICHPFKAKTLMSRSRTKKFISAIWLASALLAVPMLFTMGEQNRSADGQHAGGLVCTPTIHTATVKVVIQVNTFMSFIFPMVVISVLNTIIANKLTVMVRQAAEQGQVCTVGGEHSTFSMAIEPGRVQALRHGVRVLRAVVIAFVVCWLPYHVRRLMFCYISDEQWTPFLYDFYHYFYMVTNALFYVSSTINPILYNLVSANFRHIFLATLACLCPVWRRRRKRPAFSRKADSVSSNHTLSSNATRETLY", "format": "functional"}, "[23]": {"tested_on": "BJ", "assay": "cytotoxicity toward BJ-TERT-LT-ST fibroblasts, dose response, cell-based, RAS-independent, luminescence (AID 1935);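 also: BJ fibroblasts immortalized with TERT plus LT and ST oncogenes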", "format": "functional", "settings": "Homo sapiens"}}, "note": "Calls of active or inactive are those of the source."}
{"smiles": "Oc1ccc(C[C@H]2CNC(=S)N2CC2CCCN2C[C@H](Cc2ccccc2)N2C[C@H](Cc3ccc(O)cc3)N(CCc3ccccc3)C2=S)cc1", "note": "(stereo not given in full)", "values": [{"measurement": "AC50", "setting": "[1]", "result": "11.5 µM (active)"}, {"measurement": "IC50", "setting": "[2]", "result": "30.5 µM (active)"}, {"measurement": "IC50", "setting": "[3]", "result": "17 µM (active)"}]}
{"smiles": "COC(=O)CC1(C(=O)OC)Nc2cc(Cl)c(Cl)cc2S(=O)(=O)N1O", "note": "(stereo not given)", "values": [{"measurement": "IC50", "setting": "[4]", "result": "> 94.2 µM (inactive)"}, {"measurement": "EC50", "setting": "[5]", "result": "> 99 µM (inactive)"}, {"measurement": "EC50", "setting": "[6]", "result": "1.14 µM (active)"}]}
{"smiles": "C/C(=N\\NC(=O)c1ccccc1F)c1ccc2c(c1)Nc1ccccc1S2", "values": [{"measurement": "IC50", "setting": "[7]", "result": "10.5 µM (active)"}, {"measurement": "IC50", "setting": "[8]", "result": "54.7 µM (active)"}, {"measurement": "IC50", "setting": "[9]", "result": "11.2 µM (active)"}]}
{"smiles": "O=C(OCc1cn([C@H]2CN(C(=O)C3CCCCC3)[C@@H](c3ccccc3)C[C@@H]2O)nn1)c1ccccc1", "values": [{"measurement": "AC50", "setting": "[10]", "result": "20.2 µM (active)"}, {"measurement": "AC50", "setting": "[11]", "result": "16.1 µM (active)"}]}
{"smiles": "CN1CCN(C(=O)COc2ccc(-c3nc4ccccc4s3)cc2)CC1", "values": [{"measurement": "IC50", "setting": "[12]", "result": "3.57 µM (active)"}]}
{"smiles": "CC(C)Nc1ccc(Nc2ccnc3cc4ccccc4cc23)cc1", "values": [{"measurement": "IC50", "setting": "[8]", "result": "20 µM (active)"}, {"measurement": "EC50", "setting": "[13]", "result": "4.73 µM (active)"}, {"measurement": "EC50", "setting": "[14]", "result": "6.48 µM (active)"}, {"measurement": "AC50", "setting": "[15]", "result": "51.2 µM (active)"}, {"measurement": "AC50", "setting": "[16]", "result": "3.15 µM (active)"}, {"measurement": "AC50", "setting": "[17]", "result": "0.782 µM (active)"}, {"measurement": "AC50", "setting": "[1]", "result": "7.04 µM (active)"}, {"measurement": "EC50", "setting": "[18]", "result": "3.71 µM (inconclusive)"}, {"measurement": "CC50", "setting": "[19]", "result": "17.2 µM (active)"}, {"measurement": "EC50", "setting": "[20]", "result": "0.632 µM (active)"}, {"measurement": "EC50", "setting": "[21]", "result": "9.05 µM (inconclusive)"}, {"measurement": "EC50", "setting": "[22]", "result": "12.2 µM (active)"}, {"measurement": "EC50", "setting": "[23]", "result": "5.35 µM (inconclusive)"}]}
